Columns and labels:
Assay type in all cases: ADME, organism-based
[1] = Cmax in Swiss albino mouse at 2 mg/kg, iv; set-up: dose 2 mg/kg, route intravenous; details: in vivo
Mus musculus [2] = assay: AUClast in Swiss albino mouse at 2 mg/kg, iv; set-up: dose 2 mg/kg, time 0 - last, route intravenous; details: in vivo
[3] = Tmax in Swiss albino mouse at 10 mg/kg, po; details: in vivo
[4] = Cmax in Swiss albino mouse at 10 mg/kg, po; set-up: dose 10 mg/kg, route oral; details: in vivo
Mus musculus [5] = assay: AUClast in Swiss albino mouse at 10 mg/kg, po; set-up: dose 10 mg/kg, route oral, time 0 - last; details: in vivo
[6] = Oral bioavailability in Swiss albino mouse at 10 mg/kg; details: in vivo
[7] = Volume of distribution at steady state in Swiss albino mouse at 2 mg/kg, iv; details: in vivo, read-out: Vdss

C=CC(=O)Nc1cccc(CNc2nc(Nc3ccc(N4CCN(C)CC4)cc3OC)ncc2Cl)c1
Cmax [1]: 159 ng/mL | AUClast (Mus musculus [2]): 241.3 h/ng/mL | Tmax [3]: 30 min | Cmax [4]: 204 ng/mL | AUClast (Mus musculus [5]): 795.29 h/ng/mL | bioavailability [6]: 66% | Vd [7]: 18.4 L/kg

Reference: ChEMBL document CHEMBL3600288, “Development of Selective Covalent Janus Kinase 3 Inhibitors” (J Med Chem, 2015)
